Measured values as given in PubChem BioAssay AID2060613 (Molecular Pharmacology Branch, DTP, NCI, 2025).
Values joined by “and” are separate entries in the source; they are usually repeats but may differ in a detail not shown here. Equal entries are not always repeated.

Test system: 233499-124-R-J3-PDC complex spheroid viability
Assay: Anticancer human tumor 233499-124-R-J3-PDC patient-derived colon adenocarcinoma cell line growth inhibition [CLK]
Details: for viability, T/C: stronger effect = lower value
Summary of the method: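 Patient-derived tumor cells grown as complex spheroids with HUVEC endothelial cells and mesenchymal stem cells, treated with drug combinations. Concentrations descend in half-log steps from near clinical Cmax, or from 10 microM if Cmax unknown.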
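Note: spheroids exposed to the drug combinations for seven days.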
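Throughout, for viability, T/C: percent viability relative to DMSO vehicle control wells taken as 100%.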

For `C=CC(=O)Nc1cc(Nc2nccc(-c3cn(C)c4ccccc34)n2)c(OC)cc1N(C)CCN(C)C` + CNC(=O)c1ccc(Nc2nc(OC3CCCC3)c3c(-c4ccc5nc(C)oc5c4)c[nH]c3n2)c(OC)c1, the IC50 (curve of first compound, second compound 0.0316 µM) was greater than 300 nM, the IC50 (curve of first compound, second compound 0.1 µM) was greater than 300 nM and the IC50 (curve of first compound, second compound 0.316 µM) was greater than 300 nM. The IC50 (curve of first compound, second compound 1 µM) was greater than 300 nM, the IC50 (curve of first compound, second compound 3.16 µM) was greater than 300 nM and the IC50 (curve of first compound, second compound 10 µM) was greater than 300 nM. For the same compound, the viability, T/C (second compound 0.0316 µM, first compound 0.000949 µM) was 70.1%, the viability, T/C (second compound 0.0316 µM, first compound 0.003 µM) was 97% and the viability, T/C (second compound 0.0316 µM, first compound 0.00949 µM) was 76.7%. The viability, T/C (second compound 0.0316 µM, first compound 0.03 µM) was 91%, the viability, T/C (second compound 0.0316 µM, first compound 0.0949 µM) was 94.9% and the viability, T/C (second compound 0.0316 µM, first compound 0.3 µM) was 71.8%. It also gave a viability, T/C (second compound 0.1 µM, first compound 0.000949 µM) of 69.8%, a viability, T/C (second compound 0.1 µM, first compound 0.003 µM) of 80.8% and a viability, T/C (second compound 0.1 µM, first compound 0.00949 µM) of 77.9%. For the same compound, the viability, T/C (second compound 0.1 µM, first compound 0.03 µM) was 74.8%, the viability, T/C (second compound 0.1 µM, first compound 0.0949 µM) was 81.5% and the viability, T/C (second compound 0.1 µM, first compound 0.3 µM) was 77.1%. For the same compound, the viability, T/C (second compound 0.316 µM, first compound 0.000949 µM) was 70%, the viability, T/C (second compound 0.316 µM, first compound 0.003 µM) was 86% and the viability, T/C (second compound 0.316 µM, first compound 0.00949 µM) was 69.2%. The viability, T/C (second compound 0.316 µM, first compound 0.03 µM) was 68.4%, the viability, T/C (second compound 0.316 µM, first compound 0.0949 µM) was 76.6% and the viability, T/C (second compound 0.316 µM, first compound 0.3 µM) was 78.3%. For the same compound, the viability, T/C (second compound 1 µM, first compound 0.000949 µM) was 78.7%, the viability, T/C (second compound 1 µM, first compound 0.003 µM) was 76.2% and the viability, T/C (second compound 1 µM, first compound 0.00949 µM) was 75.3%. It also gave a viability, T/C (second compound 1 µM, first compound 0.03 µM) of 82.5%, a viability, T/C (second compound 1 µM, first compound 0.0949 µM) of 69.9% and a viability, T/C (second compound 1 µM, first compound 0.3 µM) of 73.3%. The viability, T/C (second compound 3.16 µM, first compound 0.000949 µM) was 55.5%, the viability, T/C (second compound 3.16 µM, first compound 0.003 µM) was 71.3% and the viability, T/C (second compound 3.16 µM, first compound 0.00949 µM) was 81.4%. It also gave a viability, T/C (second compound 3.16 µM, first compound 0.03 µM) of 65.8%, a viability, T/C (second compound 3.16 µM, first compound 0.0949 µM) of 79.7% and a viability, T/C (second compound 3.16 µM, first compound 0.3 µM) of 67.7%. For the same compound, the viability, T/C (second compound 10 µM, first compound 0.000949 µM) was 73.5%, the viability, T/C (second compound 10 µM, first compound 0.003 µM) was 62.2% and the viability, T/C (second compound 10 µM, first compound 0.00949 µM) was 76.9%. The viability, T/C (second compound 10 µM, first compound 0.03 µM) was 74.8%, the viability, T/C (second compound 10 µM, first compound 0.0949 µM) was 69.6% and the viability, T/C (second compound 10 µM, first compound 0.3 µM) was 61.7%.
`COc1ccc([C@@H](O)c2cc(-c3ncnc4cc(N5CCOCC5)ccc34)c(F)cc2Cl)nn1` was tested, and the viability, T/C (compound 0.0316 µM) was 103% and 84.3%, the viability, T/C (compound 0.1 µM) was 106% and 94.1% and the viability, T/C (compound 0.316 µM) was 109% and 95.4%. For the same compound, the viability, T/C (compound 1 µM) was 99.8% and 91.2%, the viability, T/C (compound 3.16 µM) was 96.1% and 92.5% and the viability, T/C (compound 10 µM) was 83.5% and 79.1%. For the same compound, the IC50 (curve of compound) was greater than 10000 nM.
